This note sets out measurements from ChEMBL document CHEMBL5728435, “Alpha-D-galactoside inhibitors of galectins” (2021).

Assay [1] concerns the target Galectin-1 (Homo sapiens, UniProt P09382). The assay is described as follows: (§1) Fluorescence Anisotropy Assay: Compounds for galectins were determined by a fluorescence anisotropy assay where the compound was used as an inhibitor of the interaction between galectin and a fluorescein tagged saccharide probe. (In fluorescence polarisation assays a small probe gives low polarisation when free and higher when bound to something large.)

The target in assay [2] is Galectin-3 (Homo sapiens, UniProt P17931). The assay is described as §1.
Chain of Galectin-3 (P17931 whole entry): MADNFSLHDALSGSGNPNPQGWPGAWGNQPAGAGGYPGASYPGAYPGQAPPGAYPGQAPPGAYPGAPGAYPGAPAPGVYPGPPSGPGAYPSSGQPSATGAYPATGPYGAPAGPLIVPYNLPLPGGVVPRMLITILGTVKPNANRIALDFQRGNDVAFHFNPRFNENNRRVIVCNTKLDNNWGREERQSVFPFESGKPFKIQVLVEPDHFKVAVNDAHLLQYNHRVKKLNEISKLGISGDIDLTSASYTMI

Chain of Galectin-1 (P09382 whole entry): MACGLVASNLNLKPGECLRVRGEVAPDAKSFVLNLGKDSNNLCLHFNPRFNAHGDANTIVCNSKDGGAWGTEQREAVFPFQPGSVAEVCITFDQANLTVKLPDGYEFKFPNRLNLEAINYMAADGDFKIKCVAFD

A word on the Kd: it is the equilibrium constant for the complex coming apart. The low end stands for a tighter complex, the high end for a looser complex. For the molecule `OCC1O[C@H](Sc2cc(Cl)c(F)c(Cl)c2)C(O)[C@@H](n2cc(-c3nccs3)nn2)[C@H]1O` (some centres not stated), the Kd turned out to be 280 nM in assay [1] and 10 µM in assay [2].
